Laboratory results as given in PubChem BioAssay AID330 (DTP/NCI, 2004).
Where “and” joins values, the source holds several entries; their conditions need not be identical. Identical values can stand only once. Inconclusive results and toxic doses are left out.

Tested on: P388 leukemia ip, CD2F1 mice, survival T/C
Test: NCI In Vivo Anticancer Drug Screen. Data for tumor model P388 Leukemia (intraperitoneal) in CD2F1 (CDF1) mice
Details: endpoint: median survival time, higher = longer survival
Outline: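 Mice carrying the transplanted tumor received test compound or vehicle. Survival was recorded in each group, and the value is the treated-group measurement divided by that of the vehicle-treated control group.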

[1] = dose: 12.5 mg/kg/injection, schedule: Q01DX009 (ip), vehicle: saline
[2] = dose: 25.0 mg/kg/injection, schedule: Q01DX009 (ip), vehicle: saline
[3] = dose: 50.0 mg/kg/injection, schedule: Q01DX009 (ip), vehicle: saline
[4] = dose: 100.0 mg/kg/injection, schedule: Q01DX009 (ip), vehicle: saline
[5] = dose: 50.0 mg/kg/injection, schedule: Q01DX009 (ip), vehicle: Klucel (hydroxypropylcellulose) (HPC)
[6] = dose: 100.0 mg/kg/injection, schedule: Q01DX009 (ip), vehicle: Klucel (hydroxypropylcellulose) (HPC)
[7] = dose: 50.0 mg/kg/injection, schedule: Q01DX005 (ip), vehicle: Klucel (hydroxypropylcellulose) (HPC)
[8] = dose: 100.0 mg/kg/injection, schedule: Q01DX005 (ip), vehicle: Klucel (hydroxypropylcellulose) (HPC)
[9] = dose: 200.0 mg/kg/injection, schedule: Q01DX005 (ip), vehicle: Klucel (hydroxypropylcellulose) (HPC)
[10] = dose: 60.0 mg/kg/injection, schedule: Q01DX005 (ip), vehicle: saline
[11] = dose: 120.0 mg/kg/injection, schedule: Q01DX005 (ip), vehicle: saline
[12] = dose: 240.0 mg/kg/injection, schedule: Q01DX005 (ip), vehicle: saline
[13] = dose: 50.0 mg/kg/injection, schedule: Q01DX005 (ip), vehicle: saline with Tween-80
[14] = dose: 100.0 mg/kg/injection, schedule: Q01DX005 (ip), vehicle: saline with Tween-80
[15] = dose: 200.0 mg/kg/injection, schedule: Q01DX005 (ip), vehicle: saline with Tween-80
[16] = dose: 50.0 mg/kg/injection, schedule: Q01DX009 (ip), vehicle: saline with Tween-80
[17] = dose: 100.0 mg/kg/injection, schedule: Q01DX009 (ip), vehicle: saline with Tween-80
[18] = dose: 12.5 mg/kg/injection, schedule: Q01DX009 (ip), vehicle: saline with Tween-80
[19] = dose: 25.0 mg/kg/injection, schedule: Q01DX009 (ip), vehicle: saline with Tween-80
[20] = dose: 200.0 mg/kg/injection, schedule: Q01DX009 (ip), vehicle: saline with Tween-80
[21] = dose: 200.0 mg/kg/injection, schedule: Q01DX009 (ip), vehicle: saline

## COc1ccc(CCNCC(O)c2ccc(C)s2)cc1OC (centres undefined)
[1]
  T/C: 100 % of control
[2]
  T/C: 86 % of control
[3]
  T/C: 101 % of control and 86 % of control
[4]
  T/C: 98 % of control

## O=C1CSC(=S)N1c1ccc(Cl)cc1
dose: 25.0 mg/kg/injection, schedule: Q01DX009 (ip), vehicle: Klucel (hydroxypropylcellulose) (HPC)
  T/C: 96 % of control
[5]
  T/C: 96 % of control
[6]
  T/C: 113 % of control

## O=[N+]([O-])c1ccc2c(c1)nc(-c1ccccn1)n2CCc1ccncc1
dose: 25.0 mg/kg/injection, schedule: Q01DX005 (ip), vehicle: Klucel (hydroxypropylcellulose) (HPC)
  T/C: 95 % of control
[7]
  T/C: 94 % of control
[8]
  T/C: 92 % of control
[9]
  T/C: 91 % of control

## CCCCC1(C)OC(C)CC(C)O1 (centres undefined)
[10]
  T/C: 97 % of control
[11]
  T/C: 99 % of control
[12]
  T/C: 108 % of control

## C/C(=N\NC(=O)c1ccccc1N)c1ccccc1O
[7]
  T/C: 100 % of control
[8]
  T/C: 98 % of control
[9]
  T/C: 100 % of control

## Cc1cccc(NC(=O)C(=O)CC(=O)c2ccc([N+](=O)[O-])cc2)c1C
[13]
  T/C: 105 % of control
[14]
  T/C: 108 % of control
[15]
  T/C: 106 % of control

## CCS/C(C#N)=C(/OC)c1ccccc1Cl
[16]
  T/C: 89 % of control
[17]
  T/C: 94 % of control

## c1ccc(C2CN3CCSC3=N2)cc1 (centres undefined)
dose: 3.13 mg/kg/injection, schedule: Q01DX009 (ip), vehicle: saline with Tween-80
  T/C: 98 % of control
dose: 3.75 mg/kg/injection, schedule: Q01DX005 (ip), vehicle: saline
  T/C: 101 % of control
dose: 6.25 mg/kg/injection, schedule: Q01DX009 (ip), vehicle: saline with Tween-80
  T/C: 100 % of control
dose: 7.5 mg/kg/injection, schedule: Q01DX005 (ip), vehicle: saline
  T/C: 100 % of control
[18]
  T/C: 98 % of control
dose: 15.0 mg/kg/injection, schedule: Q01DX005 (ip), vehicle: saline
  T/C: 99 % of control
[19]
  T/C: 103 % of control

## Clc1ccc(-c2n[nH]c3c2Cc2ccccc2-3)cc1Cl
[7]
  T/C: 97 % of control
[8]
  T/C: 91 % of control
[9]
  T/C: 98 % of control

## CC(=O)O/N=C/c1ccccn1
dose: 25.0 mg/kg/injection, schedule: Q04DX003 (ip), vehicle: saline
  T/C: 94 % of control
dose: 50.0 mg/kg/injection, schedule: Q04DX003 (ip), vehicle: saline
  T/C: 89 % of control and 94 % of control
dose: 100.0 mg/kg/injection, schedule: Q04DX003 (ip), vehicle: saline
  T/C: 100 % of control
dose: 200.0 mg/kg/injection, schedule: Q04DX003 (ip), vehicle: saline
  T/C: 98 % of control and 100 % of control

## CSC(=S)N/N=C/c1nccc2ccccc12
dose: 100.0 mg/kg/injection, schedule: Q01DX001 (ip), vehicle: saline with Tween-80
  T/C: 112 % of control
dose: 200.0 mg/kg/injection, schedule: Q01DX001 (ip), vehicle: saline with Tween-80
  T/C: 108 % of control
dose: 400.0 mg/kg/injection, schedule: Q01DX001 (ip), vehicle: saline with Tween-80
  T/C: 116 % of control

## COC(=O)C1C(=O)C2CCC1C(=O)C2C(=O)OC (centres undefined)
[16]
  T/C: 93 % of control
[17]
  T/C: 93 % of control
[20]
  T/C: 98 % of control

## O=C1NC(=O)C2=C1CCC2
dose: 3.13 mg/kg/injection, schedule: Q01DX009 (ip), vehicle: distilled water + Tween-80
  T/C: 98 % of control
dose: 6.25 mg/kg/injection, schedule: Q01DX009 (ip), vehicle: distilled water + Tween-80
  T/C: 104 % of control
dose: 12.5 mg/kg/injection, schedule: Q01DX009 (ip), vehicle: distilled water + Tween-80
  T/C: 114 % of control

## Cc1csc(=NCc2cccnc2)n1C
dose: 6.25 mg/kg/injection, schedule: Q01DX009 (ip), vehicle: saline
  T/C: 100 % of control
[1]
  T/C: 107 % of control

## COC(=O)[C@H](NC(=O)c1ccccc1)[C@@H](O)/C=C/c1ccccc1
[13]
  T/C: 94 % of control
[15]
  T/C: 87 % of control

## COc1cccc(OC)c1N(CCO)CCO
[16]
  T/C: 101 % of control
[17]
  T/C: 95 % of control
[20]
  T/C: 106 % of control

## CC(=O)NC(C)(C(C)=O)c1ccccc1 (centres undefined)
[10]
  T/C: 102 % of control
[11]
  T/C: 107 % of control
[12]
  T/C: 110 % of control

## O=C1c2ccsc2C(=O)c2ccsc21
[18]
  T/C: 101 % of control
[19]
  T/C: 105 % of control
[16]
  T/C: 101 % of control
[17]
  T/C: 99 % of control

## NCCCC(N)(C(=O)O)C(F)F (centres undefined)
dose: 50.0 mg/kg/injection, schedule: Q01DX005 (ip), vehicle: saline
  T/C: 106 % of control
dose: 50.0 mg/kg/injection, schedule: Q01DX009 (ip), vehicle: distilled water + alcohol
  T/C: 112 % of control
[3]
  T/C: 87 % of control
dose: 100.0 mg/kg/injection, schedule: Q01DX005 (ip), vehicle: saline
  T/C: 103 % of control
dose: 100.0 mg/kg/injection, schedule: Q01DX009 (ip), vehicle: distilled water + alcohol
  T/C: 112 % of control
[4]
  T/C: 103 % of control
dose: 200.0 mg/kg/injection, schedule: Q01DX005 (ip), vehicle: saline
  T/C: 103 % of control
dose: 200.0 mg/kg/injection, schedule: Q01DX009 (ip), vehicle: distilled water + alcohol
  T/C: 115 % of control
[21]
  T/C: 110 % of control
dose: 400.0 mg/kg/injection, schedule: Q01DX009 (ip), vehicle: distilled water + alcohol
  T/C: 119 % of control
dose: 800.0 mg/kg/injection, schedule: Q01DX009 (ip), vehicle: distilled water + alcohol
  T/C: 111 % of control

## O=[N+]([O-])c1ccc(-c2nc3ccncc3[nH]2)cc1
[3]
  T/C: 107 % of control
[4]
  T/C: 104 % of control
[21]
  T/C: 93 % of control

## COC(=O)C1=NC(c2ccccc2)(c2ccccc2)C(C(=O)OC)=C(C(=O)OC)P(c2ccccc2)(c2ccccc2)=C1C(=O)OC
[7]
  T/C: 88 % of control
[8]
  T/C: 92 % of control
[9]
  T/C: 110 % of control

## Cc1cccc2ncc([N+](=O)[O-])n12
[16]
  T/C: 114 % of control and 88 % of control
[17]
  T/C: 102 % of control and 89 % of control

## CN(C)c1ccc(C(c2cc3c(cc2O)OCO3)N2CCCC2)cc1 (centres undefined)
dose: 60.0 mg/kg/injection, schedule: Q01DX005 (ip), vehicle: Klucel (hydroxypropylcellulose) (HPC)
  T/C: 108 % of control
dose: 120.0 mg/kg/injection, schedule: Q01DX005 (ip), vehicle: Klucel (hydroxypropylcellulose) (HPC)
  T/C: 109 % of control
dose: 240.0 mg/kg/injection, schedule: Q01DX005 (ip), vehicle: Klucel (hydroxypropylcellulose) (HPC)
  T/C: 109 % of control

## CNC(=O)OCc1c(-c2ccccc2)nc2n1CCS2
dose: 12.5 mg/kg/injection, schedule: Q01DX001 (ip), vehicle: Klucel (hydroxypropylcellulose) (HPC)
  T/C: 108 % of control
dose: 25.0 mg/kg/injection, schedule: Q01DX001 (ip), vehicle: Klucel (hydroxypropylcellulose) (HPC)
  T/C: 107 % of control
dose: 50.0 mg/kg/injection, schedule: Q01DX001 (ip), vehicle: Klucel (hydroxypropylcellulose) (HPC)
  T/C: 113 % of control

## CC(C)CC(N)C(=O)OCN1C(=O)C2C3C=CC(C2C1=O)C1C2C(=O)N(COC(=O)C(N)CC(C)C)C(=O)C2C31 (centres undefined)
[1]
  T/C: 102 % of control and 105 % of control
[2]
  T/C: 105 % of control and 108 % of control
[3]
  T/C: 109 % of control and 119 % of control
[4]
  T/C: 162 % of control and 177 % of control

## N=C(N)c1ccc(N=Nc2cc(/C=C/c3ccccc3)ccc2O)cc1
[7]
  T/C: 110 % of control
[8]
  T/C: 92 % of control

## C1=C(B2OCCNO2)CCCC1
dose: 100.0 mg/kg/injection, schedule: Q01DX001 (ip), vehicle: saline
  T/C: 101 % of control
dose: 200.0 mg/kg/injection, schedule: Q01DX001 (ip), vehicle: saline
  T/C: 96 % of control
dose: 400.0 mg/kg/injection, schedule: Q01DX001 (ip), vehicle: saline
  T/C: 104 % of control

## COc1ccccc1N=c1scc(C)n1C
[5]
  T/C: 111 % of control
[6]
  T/C: 109 % of control
dose: 200.0 mg/kg/injection, schedule: Q01DX009 (ip), vehicle: Klucel (hydroxypropylcellulose) (HPC)
  T/C: 118 % of control

## CCOC(=O)c1c(C(=O)Nc2ccccc2)c(-c2ccccc2)n(NC(N)=O)c1C
[13]
  T/C: 104 % of control
[14]
  T/C: 105 % of control
[15]
  T/C: 98 % of control

## O=C(Nc1cccc(C(F)(F)F)c1)OC1CC2CC1C1CC3OC3C21 (centres undefined)
[7]
  T/C: 93 % of control
[8]
  T/C: 87 % of control

## CC(/C=C/c1ccccc1)=Nc1ccccc1
[16]
  T/C: 109 % of control and 112 % of control
[17]
  T/C: 114 % of control and 123 % of control
[20]
  T/C: 123 % of control
